Active and inactive are the calls of the source.
Tests used:
Estrogen receptor = target: T1, Estrogen receptor (Homo sapiens, UniProt P03372); test: potentiators of ERα–SRC-1 coactivator binding, dose response, biochemical, TR-FRET, ERα LBD (AID 737)
T1 sequence (P03372 whole entry): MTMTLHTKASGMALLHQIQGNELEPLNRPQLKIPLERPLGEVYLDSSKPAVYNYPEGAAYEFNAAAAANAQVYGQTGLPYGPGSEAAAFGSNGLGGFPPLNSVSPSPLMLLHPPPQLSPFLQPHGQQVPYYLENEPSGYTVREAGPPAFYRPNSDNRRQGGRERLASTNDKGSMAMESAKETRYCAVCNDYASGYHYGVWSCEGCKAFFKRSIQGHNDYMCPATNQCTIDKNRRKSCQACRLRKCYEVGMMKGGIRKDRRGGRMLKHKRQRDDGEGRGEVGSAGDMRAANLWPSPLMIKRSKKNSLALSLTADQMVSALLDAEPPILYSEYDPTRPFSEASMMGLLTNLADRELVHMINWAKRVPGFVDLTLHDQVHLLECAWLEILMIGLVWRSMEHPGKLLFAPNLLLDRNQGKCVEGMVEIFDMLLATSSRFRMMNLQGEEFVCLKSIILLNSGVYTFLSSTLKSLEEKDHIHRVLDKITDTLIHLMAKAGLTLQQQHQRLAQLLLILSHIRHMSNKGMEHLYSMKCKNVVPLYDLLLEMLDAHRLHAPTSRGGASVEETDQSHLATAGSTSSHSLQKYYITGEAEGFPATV

[1] = target: T2, Heat shock factor protein 1 (Mus musculus, UniProt P38532); test: inhibition of MG132-induced HSE-luciferase signal, confirmation, cell-based, NIH3T3, luminescence, dose retest (AID 2382); type: functional;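 also: NIH3T3 fibroblasts with HSF1-driven luciferase reporter stressed by proteasome inhibitor MG132; luminescence from HSF1-driven luciferase expression after 8 hours of MG132 stress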
T2 sequence (P38532 whole entry): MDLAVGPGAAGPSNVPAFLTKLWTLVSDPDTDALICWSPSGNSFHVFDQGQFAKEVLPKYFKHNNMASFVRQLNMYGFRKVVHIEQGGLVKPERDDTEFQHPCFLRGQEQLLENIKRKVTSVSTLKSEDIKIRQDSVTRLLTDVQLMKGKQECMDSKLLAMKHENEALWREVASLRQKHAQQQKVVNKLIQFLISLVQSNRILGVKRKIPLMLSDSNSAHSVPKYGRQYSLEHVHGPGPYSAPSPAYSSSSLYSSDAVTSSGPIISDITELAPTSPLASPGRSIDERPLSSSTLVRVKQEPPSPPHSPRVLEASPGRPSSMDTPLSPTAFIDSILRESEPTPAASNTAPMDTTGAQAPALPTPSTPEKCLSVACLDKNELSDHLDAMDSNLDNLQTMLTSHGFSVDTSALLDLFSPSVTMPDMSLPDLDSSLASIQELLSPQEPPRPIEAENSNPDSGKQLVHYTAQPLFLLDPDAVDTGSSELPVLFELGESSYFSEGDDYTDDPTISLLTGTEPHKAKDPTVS

[2] = target: Protein disulfide-isomerase (Homo sapiens, UniProt P07237); test: PDI inhibitors, insulin aggregation turbidity, dose response, biochemical, absorbance, cherry-picked samples (AID 602350); type: functional
[3] = inhibitors of SNCA 5'UTR-driven reporter translation, confirmation, H4 neuroglioma cells, luminescence (AID 1988); type: functional, cell-based
[4] = HepG2 cell cytotoxicity, dose response, cytotoxicity control for Shn3 inhibitor project, CellTiter-Glo, cherry-picked (AID 624134); type: functional, cell-based
[5] = Luminescence Cell-Based Dose Response HTS to Identify Inhibitors of 5'UTR Stem-Loop Driven Prion Protein mRNA Translation in H4 Neuroglioblastoma Cells. [Related pubchem assays: 1827 (Project Summary), 1813 (Primary HTS)]; type: functional
H4 [6] = test: inhibitors of control reporter signal in H4 cells – cell-based, plate reader, dry powder samples, counter-screen for prion reporter project, dose response (AID 540255); type: functional; conditions: Homo sapiens
[7] = LGR2 antagonists, dose response, cell-based, HEK293, CRE-luciferase reporter, cherry pick, set 2 (AID 743343); type: functional;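 also: transfected cells were stimulated with diluted bursicon conditioned medium after compound addition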
[8] = A549 cell cytotoxicity, dose response, cytotoxicity control, plate reader, cherry-pick, antagonist series (AID 743412); type: functional, cell-based
[9] = ZM109 Env clade C HIV-1 fusion inhibitors, dose response, HeLa effector, CEM target cells, luciferase, cherry-pick (AID 652058); type: functional, cell-based
[10] = Luminescence Cell-Based Dose Confirmation HTS to Identify Inhibitors of Platelet Dense Granule Release. [Related pubchem assays: 1663 (Primary HTS), 1678 (Summary of Project)]; type: functional
H4 [11] = test: Inhibitors of Prion Protein 5' UTR mRNA Measured in Cell-Based System Using Plate Reader - 2078-01_Inhibitor_Dose_DryPowder_Activity. [Related pubchem assays (depositor defined):AID488894]; type: functional; conditions: Homo sapiens
[12] = HEK293 cell cytotoxicity, dose response, cytotoxicity control, plate reader, cherry-picked samples (AID 743446); type: functional, cell-based
[13] = inhibitors of firefly luciferase expression or activity, dose response, H4 neuroglioma cells, luminescence (AID 1990); type: functional, cell-based
[14] = HepG2 cell cytotoxicity, dose response, cytotoxicity control, plate reader, cherry-pick, antagonist series (AID 743416); type: functional, cell-based
[15] = inhibitors of HIV Env-driven cell fusion, dose response, cherry-pick (AID 652057); type: functional, cell-based
[16] = inhibitors of clade B AD8 Env fusion, dose response, cell-based, cherry-pick (AID 652062); type: functional;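 also: luciferase signal from cell-cell fusion driven by HIV-1 clade B AD8 Env; potency is for inhibitors of fusion seen as a drop in luminescence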
[17] = Shn3 3'UTR reporter inhibitors, dose response, cell-based, Clone20 osteoblasts, firefly luciferase, cherry-picked (AID 624132); type: functional;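 also: firefly luciferase luminescence from reporter carrying the Shn3 3'UTR in osteoblasts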
[18] = reduction of Shn3 3'UTR firefly luciferase signal, dose response, Schnurri-3 inhibitor project, cell-based, Clone20 osteoblasts, cherry-pick, set 2 (AID 720490); type: functional;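 also: actives lower the luminescence signal as inhibitors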
[19] = target: T3, Luciferin 4-monooxygenase (Photinus pyralis, UniProt P08659); test: firefly luciferase enzyme inhibitors, dose response, biochemical, luminescence (AID 1891)
[20] = MC4R antagonists, dose response, counter-screen for LGR2 antagonist project, cell-based, plate reader, cherry pick (AID 743444); type: functional;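 also: transfected HEK 293 cells stimulated with alpha-MSH peptide; potency of inhibitors of the alpha-MSH evoked signal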
H4 [21] = test: Amyloid Precursor 5' UTR neuroblastoma cell reporter line Measured in Cell-Based System Using Plate Reader - 2078-04_Inhibitor_Dose_DryPowder_Activity. [Related pubchem assays (depositor defined):AID488894]; type: functional; conditions: Homo sapiens
[22] = off-target signal loss in HeLa-CEM21 co-culture – HeLa F-luc CTL cells, cherry-picked, counter-screen for HIV-1 Env fusion inhibitor project, dose response (AID 652040); type: functional, cell-based;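 also: potency for signal decrease marking cytotoxic or nonspecific inhibition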
[23] = cytotoxicity in HEK-293T cells, dose response, cytotoxicity control for TCR NF-kB inhibitor project, luminescence, T-cell screen hits (AID 489026); type: functional, cell-based;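 also: cells exposed to compound about 14 hours before the viability readout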
[24] = CEM21 lymphoblast cell cytotoxicity, dose response, cytotoxicity control for viral fusion inhibitor project, CellTiter-Glo luminescence, cherry-picked (AID 652042); type: functional, cell-based;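 also: potency for signal decrease meaning cytotoxicity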
[25] = target: T3, Luciferin 4-monooxygenase; test: firefly luciferase enzyme inhibitors, dose response, biochemical, dry powder samples, plate reader (AID 588451)
HEK293 [26] = test: optical interference in Abeta FP readout, dose response, artefact control for IDE activator project, biochemical, fluorescence polarization (AID 588442); type: functional, cell-based; conditions: Homo sapiens
Insulin-degrading enzyme [27] = target: T4, Insulin-degrading enzyme (Homo sapiens, UniProt P14735); test: activators of recombinant IDE enzyme, dose response, counter-screen for IDE activator project, biochemical, fluorescence polarization (AID 588681)
T4 sequence (P14735 whole entry): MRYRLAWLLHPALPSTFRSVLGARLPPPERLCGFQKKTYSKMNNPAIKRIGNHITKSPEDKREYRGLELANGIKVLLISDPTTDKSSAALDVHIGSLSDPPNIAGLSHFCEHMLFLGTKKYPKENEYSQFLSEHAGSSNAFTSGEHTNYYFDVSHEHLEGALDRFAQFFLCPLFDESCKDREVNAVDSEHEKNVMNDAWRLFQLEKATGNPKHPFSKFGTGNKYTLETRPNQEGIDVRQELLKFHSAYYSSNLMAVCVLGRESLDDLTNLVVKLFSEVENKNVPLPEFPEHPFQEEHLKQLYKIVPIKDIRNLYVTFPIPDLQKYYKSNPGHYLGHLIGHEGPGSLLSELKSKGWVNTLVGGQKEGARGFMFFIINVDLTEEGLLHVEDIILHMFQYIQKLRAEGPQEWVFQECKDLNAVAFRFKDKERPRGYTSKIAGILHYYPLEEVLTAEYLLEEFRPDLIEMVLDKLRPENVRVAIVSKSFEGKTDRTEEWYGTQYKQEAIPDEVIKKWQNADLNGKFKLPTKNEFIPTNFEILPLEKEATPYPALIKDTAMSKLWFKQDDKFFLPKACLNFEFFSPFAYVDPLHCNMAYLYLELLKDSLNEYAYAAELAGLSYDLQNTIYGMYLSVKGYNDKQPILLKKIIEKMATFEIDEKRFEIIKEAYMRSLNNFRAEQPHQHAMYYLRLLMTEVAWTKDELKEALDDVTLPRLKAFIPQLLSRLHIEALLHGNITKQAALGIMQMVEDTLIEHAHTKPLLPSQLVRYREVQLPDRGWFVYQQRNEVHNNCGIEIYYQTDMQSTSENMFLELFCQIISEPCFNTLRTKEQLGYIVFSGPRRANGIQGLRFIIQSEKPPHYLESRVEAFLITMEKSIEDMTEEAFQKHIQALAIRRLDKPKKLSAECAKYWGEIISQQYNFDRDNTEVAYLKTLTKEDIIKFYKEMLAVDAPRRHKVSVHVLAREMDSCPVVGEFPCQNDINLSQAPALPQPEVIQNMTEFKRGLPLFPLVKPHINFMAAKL

HEK293 [28] = test: HEK cell cytotoxicity by LDH release, dose response, cytotoxicity control for IDE activator project, fluorescence, HEK cells (AID 588440); type: functional, cell-based; conditions: Homo sapiens;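 also: cytotoxicity by LDH release measuring loss of membrane integrity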
[29] = target: FAD-linked sulfhydryl oxidase ALR (Homo sapiens, UniProt P55789); test: inhibitors of human ALR sulfhydryl oxidase, dose response, biochemical, H2O2 detection, luminescence, cherry-pick (AID 493248)
Insulin-degrading enzyme [30] = target: T4, Insulin-degrading enzyme; test: activators of endogenous IDE in HEK cells, dose response, cell-based, fluorescence polarization (AID 588439); type: functional
Apelin receptor = Apelin receptor (Homo sapiens, UniProt P35414); test: APJ beta-arrestin recruitment antagonism, SAR follow-up, selectivity assay for CCR6 antagonist project, cell-based, luminescent, enzyme-fragment complementation (AID 588359); type: functional
[31] = target: T5, C-C chemokine receptor type 6 (Homo sapiens, UniProt P51684); test: CCR6 receptor antagonists, SAR follow-up, cell-based, luminescent beta-arrestin readout (AID 540334); type: functional
T5 sequence (P51684 whole entry): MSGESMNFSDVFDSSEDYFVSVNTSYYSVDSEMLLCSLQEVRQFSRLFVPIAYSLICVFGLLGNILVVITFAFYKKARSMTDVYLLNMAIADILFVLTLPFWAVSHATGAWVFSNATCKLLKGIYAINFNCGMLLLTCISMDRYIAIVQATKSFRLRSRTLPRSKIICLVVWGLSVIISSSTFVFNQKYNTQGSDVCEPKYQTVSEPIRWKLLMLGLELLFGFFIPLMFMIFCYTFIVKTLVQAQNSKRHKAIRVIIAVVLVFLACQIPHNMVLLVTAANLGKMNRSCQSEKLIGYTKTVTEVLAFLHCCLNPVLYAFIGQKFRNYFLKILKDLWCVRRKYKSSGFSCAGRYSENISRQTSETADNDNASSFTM

[32] = target: C-X-C chemokine receptor type 5 (Homo sapiens, UniProt P32302); test: CXCR5 receptor antagonists, SAR follow-up, selectivity assay for CCR6 antagonist project, cell-based, beta-arrestin, luminescence, CHO-K1 PathHunter (AID 540340); type: functional
[33] = THP-1 cell cytotoxicity, dose response, cytotoxicity control, set 3 (AID 504852); type: functional; conditions: Mycobacterium tuberculosis

T3 sequence (P08659 whole entry): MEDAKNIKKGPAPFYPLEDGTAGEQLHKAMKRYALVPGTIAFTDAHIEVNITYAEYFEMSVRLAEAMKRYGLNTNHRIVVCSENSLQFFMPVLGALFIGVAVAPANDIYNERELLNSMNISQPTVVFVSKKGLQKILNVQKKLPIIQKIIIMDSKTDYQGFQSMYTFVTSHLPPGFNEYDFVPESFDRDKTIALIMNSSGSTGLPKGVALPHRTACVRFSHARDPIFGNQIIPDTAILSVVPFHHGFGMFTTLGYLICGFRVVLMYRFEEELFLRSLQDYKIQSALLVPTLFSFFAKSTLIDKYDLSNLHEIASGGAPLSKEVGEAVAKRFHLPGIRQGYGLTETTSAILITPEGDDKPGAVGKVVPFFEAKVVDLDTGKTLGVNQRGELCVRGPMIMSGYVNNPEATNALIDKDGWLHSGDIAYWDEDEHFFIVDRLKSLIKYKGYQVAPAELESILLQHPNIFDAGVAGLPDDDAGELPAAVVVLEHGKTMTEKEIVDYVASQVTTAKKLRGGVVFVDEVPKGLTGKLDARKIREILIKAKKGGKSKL
Protein disulfide-isomerase, sequence (P07237 whole entry): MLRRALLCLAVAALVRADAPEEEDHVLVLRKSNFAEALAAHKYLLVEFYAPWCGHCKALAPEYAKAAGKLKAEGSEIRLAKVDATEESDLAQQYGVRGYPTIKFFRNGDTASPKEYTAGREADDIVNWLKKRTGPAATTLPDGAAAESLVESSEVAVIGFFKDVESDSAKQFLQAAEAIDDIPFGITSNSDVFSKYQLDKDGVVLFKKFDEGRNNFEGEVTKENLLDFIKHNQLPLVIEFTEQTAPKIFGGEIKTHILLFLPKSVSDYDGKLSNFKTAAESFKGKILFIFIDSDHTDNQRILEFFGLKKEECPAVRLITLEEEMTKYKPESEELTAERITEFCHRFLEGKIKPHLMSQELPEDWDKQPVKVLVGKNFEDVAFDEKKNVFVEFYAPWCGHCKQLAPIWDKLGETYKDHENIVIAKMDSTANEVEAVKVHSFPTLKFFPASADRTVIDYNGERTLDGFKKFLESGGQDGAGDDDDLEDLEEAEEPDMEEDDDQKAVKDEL
FAD-linked sulfhydryl oxidase ALR, sequence (P55789 whole entry): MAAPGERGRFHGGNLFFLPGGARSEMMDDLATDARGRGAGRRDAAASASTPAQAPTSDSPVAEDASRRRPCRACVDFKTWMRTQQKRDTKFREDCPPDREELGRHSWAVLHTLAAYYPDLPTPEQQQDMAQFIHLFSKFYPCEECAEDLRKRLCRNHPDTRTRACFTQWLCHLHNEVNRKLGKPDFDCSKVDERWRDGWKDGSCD
Apelin receptor, sequence (P35414 whole entry, the tested form may be a part): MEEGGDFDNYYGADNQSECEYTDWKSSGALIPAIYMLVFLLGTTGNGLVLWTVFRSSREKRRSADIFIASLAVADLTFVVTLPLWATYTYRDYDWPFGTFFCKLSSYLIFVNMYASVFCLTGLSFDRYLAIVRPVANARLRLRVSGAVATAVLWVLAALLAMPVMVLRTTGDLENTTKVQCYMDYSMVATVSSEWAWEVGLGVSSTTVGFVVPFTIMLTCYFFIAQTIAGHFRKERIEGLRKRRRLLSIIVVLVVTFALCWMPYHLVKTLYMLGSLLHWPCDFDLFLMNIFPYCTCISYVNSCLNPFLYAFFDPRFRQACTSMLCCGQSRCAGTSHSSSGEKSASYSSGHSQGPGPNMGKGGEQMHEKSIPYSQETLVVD
C-X-C chemokine receptor type 5, sequence (P32302 whole entry): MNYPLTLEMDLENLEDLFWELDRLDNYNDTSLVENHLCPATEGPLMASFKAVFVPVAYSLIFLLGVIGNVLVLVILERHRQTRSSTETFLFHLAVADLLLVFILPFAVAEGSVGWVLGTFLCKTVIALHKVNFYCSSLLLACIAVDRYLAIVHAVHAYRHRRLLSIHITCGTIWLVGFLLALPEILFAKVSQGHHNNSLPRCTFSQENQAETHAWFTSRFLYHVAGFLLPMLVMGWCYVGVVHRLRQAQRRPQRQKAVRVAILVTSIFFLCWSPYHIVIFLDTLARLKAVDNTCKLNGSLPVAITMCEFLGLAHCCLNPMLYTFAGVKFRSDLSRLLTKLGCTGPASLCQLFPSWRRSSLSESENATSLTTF

C[C@]12CC[C@@H]3c4ccc(O[C@@H]5O[C@H](C(=O)O)[C@@H](O)[C@H](O)[C@H]5O)cc4CC[C@H]3[C@@H]1C[C@@H](O)[C@@H]2O
> 195 µM (not active): EC50 [1]
active: EC50 (Estrogen receptor) 9.16 µM | AC50 [2] 15.7 µM

Cc1c(C)c2ccc(OCC(=O)Nc3ccccn3)c(C)c2oc1=O
active: EC50 [3] 0.236 µM | AC50 [4] 37.1 µM | EC50 [5] 0.214 µM | AC50 (H4 [6]) 0.021 µM | EC50 [1] < 0.16 µM | AC50 [7] 0.0802 µM | AC50 [8] 33.5 µM | AC50 [9] 6.61 µM | EC50 [10] 2.73 µM | AC50 (H4 [11]) 0.027 µM | AC50 [12] 48.7 µM | EC50 [13] 0.36 µM | AC50 [14] 25.3 µM | AC50 [15] 1.71 µM | AC50 [16] 0.429 µM | AC50 [17] 0.416 µM | AC50 [18] 1.77 µM | EC50 [19] 0.629 µM | AC50 [20] < 0.068 µM | AC50 (H4 [21]) 0.0103 µM | AC50 [22] 1.83 µM | AC50 [24] 35 µM | AC50 [25] 0.101 µM
inactive: IC50 [23] > 80 µM

COc1cccc(CNc2ccc3c(c2)ncn3C(C)C)c1OC
inactive: EC50 (HEK293 [26]) > 55.9 µM | EC50 (Insulin-degrading enzyme [27]) > 54.7 µM | IC50 (HEK293 [28]) > 89.2 µM | EC50 (Insulin-degrading enzyme [30]) 43.8 µM
active: AC50 [29] 2.58 µM

C/C=C(\C)C(=O)OC1[C@H](OC(C)=O)C2(CO)C(CC1(C)C)C1=CCC3C4(C)CCC(O[C@@H]5O[C@H](C(=O)O)[C@@H](O[C@@H]6O[C@H](CO)[C@@H](O)[C@H](O)[C@H]6O)[C@H](O)[C@H]5O[C@H]5O[C@H](CO)[C@@H](O)[C@H](O)[C@H]5O)[C@](C)(CO)C4CCC3(C)[C@]1(C)C[C@H]2O (stereo partly specified)
inactive: IC50 [32] 9.46 µM
active: IC50 (Apelin receptor) 9.07 µM | IC50 [31] 7.82 µM

CCOC1OC(=O)C(Cl)=C1Nc1ccccc1C (stereo unspecified)
active: CC50 [33] > 100 µM

Reference: ChEMBL document CHEMBL1201862, “PubChem BioAssay data set” (2004)
